Data on 13 compounds can be found in patent publication US4221811A, “Antifungal and/or antibacterial organotin compounds, and use” (priority 1977, dated 1980).

SMILES strings stand for the structures.

Holding throughout (type): cell-based
In one experiment the test system is Aspergillus niger. The settings on record: after three days, glucose-agar, pH~6.9-7.0. An excerpt: (§1) Antifungal activity of organotin compounds. Minimal concentra-
(§2) tion (mg/l) causing complete inhibition of visible growth (MIC;
(§3) after three days). -Test medium: glucose-agar; pH~6.9-7.0.

The subject of a further experiment is Botrytis allii. Particulars: after three days, glucose-agar, pH~6.9-7.0.
Source text: as §1, §2, §3

For the next experiment, the system named is Cladosporium cucumerinum. Particulars: after three days, glucose-agar, pH~6.9-7.0.
Source text: as §1, §2, §3

The subject of the next experiment is Penicillium italicum. The settings on record: after three days, glucose-agar, pH~6.9-7.0.
Source text: as §1, §2, §3

The subject of a further experiment is B. subtilis. Particulars: B. subtilis (Gram-pos.); after three days; peptone-glucose agar; pH ~ 6.9-7.0. An excerpt: (§4) Antibacterial activity of organotin compounds. Minimal concentration
(§5) causing complete inhibition of visible growth (MIC; after three days).
(§6) Test medium: peptone-glucose agar; pH ~ 6.9-7.0.

The next experiment deals with E. coli. The settings on record: E. coli (Gram-neg.); after three days; peptone-glucose agar; pH ~ 6.9-7.0.
Source text: as §4, §5, §6

For another experiment, the system named is P. fluorescens. Particulars: P. fluorescens (Gram-neg.); after three days; peptone-glucose agar; pH ~ 6.9-7.0.
Source text: as §4, §5, §6

A further experiment concerns S. lactis. Particulars: S. lactis (Gram-pos.); after three days; peptone-glucose agar; pH ~ 6.9-7.0.
Source text: as §4, §5, §6

For `CCC[CH2][Sn]([CH2]CCC)([CH2]CCN(C)C)[CH2]CCN(C)C` [Bu2 Sn[(CH2)3 NMe2]2], the “Minimal concentration causing complete inhibition of visible growth (MIC)” value is greater than 500 µg/mL in the experiment with Aspergillus niger; 50 µg/mL in the experiment on Botrytis allii; 500 µg/mL in the experiment with Cladosporium cucumerinum; 100 µg/mL in the experiment on Penicillium italicum; 100 µg/mL with B. subtilis; 100 µg/mL in the experiment on E. coli. Also, the “Minimal concentration causing complete inhibition of visible growth (MIC)” value stood at 300 µg/mL in the experiment with P. fluorescens and 100 µg/mL in the experiment with S. lactis.
Regarding `CCC[CH2][Sn]([CH2]CCC)([CH2]CC[N+](C)(C)C)[CH2]CC[N+](C)(C)C.[I-].[I-]` [Bu2 Sn[(CH2)3 NMe3 I]2, Bis(trimethylammoniopropyl)dibutyltin diiodide], the “Minimal concentration causing complete inhibition of visible growth (MIC)” value in the experiment on Aspergillus niger is greater than 500 µg/mL; in the experiment with Botrytis allii, 200 µg/mL; with Cladosporium cucumerinum it was greater than 500 µg/mL; with Penicillium italicum, 200 µg/mL; with B. subtilis it was 300 µg/mL; in the experiment on E. coli, greater than 1000 µg/mL. The results for the “Minimal concentration causing complete inhibition of visible growth (MIC)” value with P. fluorescens and with S. lactis were greater than 1000 µg/mL and 300 µg/mL, respectively.
As for `CCC[CH2][Sn]([CH2]CCC)([CH2]CCC)[CH2]CC(N)=O` [Bu3 Sn(CH2)2 CONH2], the “Minimal concentration causing complete inhibition of visible growth (MIC)” value in the experiment on Aspergillus niger is no more than 20 µg/mL; with Botrytis allii it was no more than 10 µg/mL; with Cladosporium cucumerinum, no more than 10 µg/mL; in the experiment on Penicillium italicum, no more than 10 µg/mL; in the experiment on B. subtilis, 3 µg/mL; with E. coli, greater than 1000 µg/mL. The “Minimal concentration causing complete inhibition of visible growth (MIC)” value is 300 µg/mL in the experiment on P. fluorescens and 10 µg/mL with S. lactis.
As for `CCC[CH2][Sn]([CH2]CCC)([CH2]CCC)[CH2]CCN` [Bu3 Sn(CH2)3 NH2], the “Minimal concentration causing complete inhibition of visible growth (MIC)” value in the experiment on Aspergillus niger came out at 20 µg/mL; in the experiment on Cladosporium cucumerinum, 5 µg/mL; in the experiment with Penicillium italicum, 2 µg/mL.
For `CCC[CH2][Sn]([CH2]CCC)([CH2]CCC)[CH2]CCN(C)C.Cl` [Bu3 Sn(CH2)3 NMe2 . HCl], the “Minimal concentration causing complete inhibition of visible growth (MIC)” value in the experiment with Aspergillus niger came out at 5 µg/mL; in the experiment with Botrytis allii, 5 µg/mL; in the experiment with Cladosporium cucumerinum, 5 µg/mL; in the experiment on Penicillium italicum it was 5 µg/mL; in the experiment with B. subtilis, 10 µg/mL; with E. coli, 300 µg/mL. The “Minimal concentration causing complete inhibition of visible growth (MIC)” value in the experiment on P. fluorescens came to 300 µg/mL; in the experiment with S. lactis, 10 µg/mL.
On to `CCC[CH2][Sn]([CH2]CCC)([CH2]CCC)[CH2]CC[N+](C)(C)C.[I-]` [Bu3 Sn(CH2)3 NMe3 I], for which the “Minimal concentration causing complete inhibition of visible growth (MIC)” value with Aspergillus niger is 50 µg/mL; in the experiment with Botrytis allii, no more than 10 µg/mL; in the experiment on Cladosporium cucumerinum, 20 µg/mL; in the experiment with Penicillium italicum it was 50 µg/mL; with B. subtilis, no more than 1 µg/mL; in the experiment on E. coli, 30 µg/mL. The “Minimal concentration causing complete inhibition of visible growth (MIC)” value is 300 µg/mL with P. fluorescens and no more than 1 µg/mL in the experiment on S. lactis.
On to `CCC[CH2][Sn]([CH2]CCC)([CH2]CCC)[CH2]CCOC(C)=O` [Bu3 Sn(CH2)3 OCOCH3], for which the “Minimal concentration causing complete inhibition of visible growth (MIC)” value with Aspergillus niger is 50 µg/mL; in the experiment on Botrytis allii, 50 µg/mL; with Cladosporium cucumerinum it was 20 µg/mL; with Penicillium italicum, 20 µg/mL; with B. subtilis, 100 µg/mL; with E. coli, greater than 1000 µg/mL. Besides, the figures for the “Minimal concentration causing complete inhibition of visible growth (MIC)” value in the experiment with P. fluorescens and in the experiment with S. lactis were 300 µg/mL and 100 µg/mL, respectively.
As for `CCC[CH2][Sn]([CH2]CCC)([CH2]CCC)[CH2]CCO` [Bu3 Sn(CH2)3 OH], the “Minimal concentration causing complete inhibition of visible growth (MIC)” value in the experiment on Aspergillus niger is 100 µg/mL; in the experiment on Botrytis allii, 50 µg/mL; in the experiment with Cladosporium cucumerinum it was 100 µg/mL; with Penicillium italicum, 100 µg/mL; with B. subtilis, 1000 µg/mL; in the experiment on E. coli, greater than 1000 µg/mL. For the same compound, the “Minimal concentration causing complete inhibition of visible growth (MIC)” value was greater than 1000 µg/mL in the experiment with P. fluorescens and 300 µg/mL in the experiment on S. lactis.
Regarding `CCC[CH2][Sn]([CH2]CCC)([CH2]CCC)[CH2]CCCN` [Bu3 Sn(CH2)4 NH2], the “Minimal concentration causing complete inhibition of visible growth (MIC)” value was 3 µg/mL in the experiment on B. subtilis, 300 µg/mL in the experiment with E. coli, 300 µg/mL with P. fluorescens and 3 µg/mL in the experiment on S. lactis.
Consider `CCC[CH2][Sn]([CH2]C#N)([CH2]CCC)[CH2]CCC` [Bu3 SnCH2 CN], for which the “Minimal concentration causing complete inhibition of visible growth (MIC)” value with Aspergillus niger was determined as 1 µg/mL; in the experiment with Botrytis allii, 20 µg/mL; in the experiment with Penicillium italicum it was 5 µg/mL.
As to `CCCC[CH2][Sn]([CH2]CCCC)([CH2]CCCC)[CH2]CC[N+](C)(C)C.[I-]` [Pent3 Sn(CH2)3 NMe3 I], the “Minimal concentration causing complete inhibition of visible growth (MIC)” value is 20 µg/mL with Aspergillus niger, no more than 10 µg/mL in the experiment with Botrytis allii, 20 µg/mL in the experiment with Cladosporium cucumerinum and 20 µg/mL in the experiment with Penicillium italicum.
For the compound `CC[N+](C)(CC)CC[CH2][Sn]([c]1ccccc1)([c]1ccccc1)[c]1ccccc1.[I-]` [Ph3 Sn(CH2)3 NEt2 MeI], the “Minimal concentration causing complete inhibition of visible growth (MIC)” value in the experiment on Aspergillus niger is greater than 1000 µg/mL; in the experiment on Botrytis allii, 50 µg/mL; in the experiment with Penicillium italicum, 500 µg/mL.
For `O=C([CH2][Sn]([c]1ccccc1)([c]1ccccc1)[c]1ccccc1)[O][Sn]([c]1ccccc1)([c]1ccccc1)[c]1ccccc1` [Ph3 SnCH2 COOSnPh3], the “Minimal concentration causing complete inhibition of visible growth (MIC)” value in the experiment on Aspergillus niger, in the experiment with Botrytis allii and in the experiment on Penicillium italicum was no more than 10 µg/mL throughout.
